Experimental data: US7034018B2, “Substituted pyrrole mannich bases to combat pain and allergic reactions” (Gruenenthal GmbH, priority 1999, dated 2006)

Experiments:
[1] = system: phenylquinone-induced writhing in mice; assay: Analgesia test in the phenylquinone-induced writhing test in mice; type: in vivo; details: male NMRI mice; standard dose of 10 mg/kg, intravenous, 10 minutes before phenylquinone i.p.
Protocol: The in-depth investigation for analgesic activity was carried out in the phenylquinone-induced writhing in mice (modified by I. C. Hendershot, J. Forsaith, J. Pharmacol. Exp. Ther. 125, 237-240 (1959)). Male NMRI mice weighing 25-30 g were used for this. Groups of 10 animals per substance dose received 0.3 ml/mouse of a 0.02% aqueous solution of phenylquinone (phenylbenzoquinone, Sigma, Deisenhofen; preparation of the solution with the addition of 5% ethanol and storage in a water bath at 45° C.) administered intraperitoneally 10 minutes after intravenous administration of the test substances. The animals were placed individually in observation cages. The number of pain-induced stretching movements (so-called writhing reactions=straightening of the body with stretching of the hind extremities) were counted by means of a push-button counter for 5-20 minutes after the administration of phenylquinone. Animals which received only physiological saline solution were also run as a control.
The substances were tested in the standard dose of 10 mg/kg. The inhibition of the writhing reactions by a substance was calculated according to the following equation: [formula]

[2] = biological target: T1, 5-HT transporter (Rattus norvegicus, UniProt P31652); assay: Inhibition of serotonin re-uptake (5-HT uptake inhibition) in rat brain synaptosomes; type: biochemical; set-up: concentration or dose not given beside the values; details: synaptosomes (P2 fraction) from pons and medulla oblongata region of male rat brain; means from 2 parallel experiments
T1 construct: these vesicular particles were isolated from the pons and medulla oblongata region of the male rat brain; from tissue; host or cells: rat brain synaptosomes (P2 fraction) from the pons and medulla oblongata of male rats
Protocol: The investigations of the inhibition of serotonin re-uptake (5-HT uptake inhibition) were carried out by the methods such as are described in M. Ch. Frink, H.-H.-Hennies, W. Englberger, M. Haurand and B. Wilffert, Arzneim.-Forsch./Drug. Res. 46 (III), 11, 1996, pages 1029-1036. They are introduced herewith as reference and thus form part of the disclosure.
To carry out these investigations, synaptosomes were freshly isolated from rat brain areas. In each case the so-called “P2” fraction was used, which was prepared according to the instructions in E. G. Gray and V. P. Whittaker, J. Anat. 76, pages 79-88, 1962. This literature is introduced herewith as reference and thus forms part of the disclosure. For determination of the 5-HT uptake, these vesicular particles were isolated from the pons and medulla oblongata region of the male rat brain.
The following characteristic data were determined for the 5-HT transporter: • 5-HT uptake: Km=0.084±0.011 μM • Vmax: 38.13±4.52 pmol/min/mg protein. The results of the investigations are in each case stated as means from 2 parallel experiments.

T1 sequence (P31652 whole entry): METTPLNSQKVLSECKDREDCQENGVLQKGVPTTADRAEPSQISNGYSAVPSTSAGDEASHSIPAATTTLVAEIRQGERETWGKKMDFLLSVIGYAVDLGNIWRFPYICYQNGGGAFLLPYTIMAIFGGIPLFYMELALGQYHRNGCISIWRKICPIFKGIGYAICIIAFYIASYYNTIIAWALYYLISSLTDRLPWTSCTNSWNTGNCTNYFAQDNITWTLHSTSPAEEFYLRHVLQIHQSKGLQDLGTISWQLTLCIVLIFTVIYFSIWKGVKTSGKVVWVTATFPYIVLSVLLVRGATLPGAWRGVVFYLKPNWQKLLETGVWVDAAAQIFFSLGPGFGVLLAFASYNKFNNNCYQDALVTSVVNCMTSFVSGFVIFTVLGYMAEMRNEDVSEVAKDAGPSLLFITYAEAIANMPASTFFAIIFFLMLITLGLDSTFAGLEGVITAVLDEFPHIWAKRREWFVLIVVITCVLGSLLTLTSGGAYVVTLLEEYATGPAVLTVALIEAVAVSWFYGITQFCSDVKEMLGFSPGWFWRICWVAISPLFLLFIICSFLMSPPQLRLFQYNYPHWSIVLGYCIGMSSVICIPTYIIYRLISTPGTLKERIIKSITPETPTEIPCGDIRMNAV

Inhibition of 5HT uptake in % [2] [%] | Compound | Inhibition of the Writhing reaction in % [1] [%]
– | Cn1cccc1C(c1ccccc1)N1CCCC1 (centres unmarked) [Example 15, 1-Methyl-2-(phenylpyrrolidin-1-yl-methyl)-1H-pyrrole] | 87
– | CN(C)C(c1ccccc1)c1cccn1C (centres unmarked) [Example 16, Dimethyl-[(1-methyl-1H-pyrrol-2-yl)-phenylmethyl]-amine] | 17
83 | N#CCCn1cccc1C(c1ccccc1F)N1CCCCC1 (centres unmarked) [Example 22, 3-{2-[(2-Fluoro-phenyl)-piperidin-1-yl-methyl]-pyrrol-1-yl}-propionitrile] | –
57 | Brc1ccc(C(c2cccn2-c2ccccc2)N2CCCC2)cc1 (centres unmarked) [Example 23, 2-[(4-Bromo-phenyl)-pyrrolidin-1-yl-methyl]-1-phenyl-1H-pyrrole] | –
59 | Cc1cccc(C(c2cccn2-c2ccccc2N)N2CCCCC2)c1 (centres unmarked) [Example 24, 2-[2-(Piperidin-1-yl-m-tolyl-methyl)-pyrrol-1-yl]-phenylamine] | –
52 | Fc1cc(Br)ccc1C(c1cccn1Cc1ccccn1)N1CCCC1 (centres unmarked) [Example 25, 2-{2-[(4-Bromo-2-fluoro-phenyl)-pyrrolidin-1-yl-methyl]-pyrrol-1-ylmethyl}-pyridine] | –
71 | c1ccc(Oc2cccc(C(c3cccn3Cc3ccccn3)N3CCCCC3)c2)cc1 (centres unmarked) [Example 26, 2-{2-[(3-Phenoxy-phenyl)-piperidin-1-yl-methyl]-pyrrol-1-ylmethyl}-pyridine] | –
44 | NC(=S)c1ccccc1-n1cccc1C(c1cccc(Oc2ccccc2)c1)N1CCCCC1 (centres unmarked) [Example 27, 2-{2-[(3-Phenoxy-phenyl)-piperidin-1-yl-methyl]-pyrrol-1-yl}-thiobenzamide] | –
40 | Fc1ccc(C(c2cccn2CCCl)N2CCCCC2)cc1 (centres unmarked) [Example 28, 1-[[1-(2-Chloro-ethyl)-1H-pyrrol-2-yl]-(4-fluoro-phenyl)-methyl]-piperidine] | –
48 | OCCn1cccc1C(c1cccc(Oc2ccccc2)c1)N1CCCCC1 (centres unmarked) [Example 29, 2-{2-[(3-Phenoxy-phenyl)-piperidin-1-yl-methyl]-pyrrol-1-yl}-ethanol] | –
43 | Cc1cccc(C(c2cccn2CCCO)N2CCCCC2)c1 (centres unmarked) [Example 30, 3-[2-(Piperidin-1-yl-m-tolyl-methyl)-pyrrol-1-yl]-propan-1-ol] | –
50 | OCCCn1cccc1C(c1ccc(F)cc1)N1CCCCC1 (centres unmarked) [Example 31, 3-{2-[(4-Fluoro-phenyl)-piperidin-1-yl-methyl]-pyrrol-1-yl}-propan-1-ol] | –
42 | Cn1cccc1C(c1ccc(F)cc1)N1CCCCC1 (centres unmarked) [Example 32, 1-[(4-Fluoro-phenyl)-(1-methyl-1H-pyrrol-2-yl)-methyl]-piperidine] | –
55 | Cn1cccc1C(c1ccc(C(F)(F)F)cc1)N1CCCCC1 (centres unmarked) [Example 33, 1-[(1-Methyl-1H-pyrrol-2-yl)-(4-trifluoromethyl-phenyl)-methyl]-piperidine] | –
39 | Nc1ccccc1-n1cccc1C(c1c(F)cccc1Cl)N1CCCC1 (centres unmarked) [Example 34, 2-{2-[(2-Chloro-6-fluoro-phenyl)-pyrrolidin-1-yl-methyl]-pyrrol-1-yl}-phenylamine] | –
43 | Brc1cccc(C(c2cccn2Cc2ccccn2)N2CCCC2)c1 (centres unmarked) [Example 35, 2-{2-[(3-Bromo-phenyl)-pyrrolidin-1-yl-methyl]-pyrrol-1-ylmethyl}-pyridine] | –
63 | Fc1ccc(C(c2cccn2Cc2ccccn2)N2CCCC2)cc1Br (centres unmarked) [Example 36, 2-{2-[(3-Bromo-4-fluoro-phenyl)-pyrrolidin-1-yl-methyl]-pyrrol-1-ylmethyl}-pyridine] | –
39 | Fc1cccc(Cl)c1C(c1cccn1Cc1ccccn1)N1CCCC1 (centres unmarked) [Example 37, 2-{2-[(2-Chloro-6-fluoro-phenyl)-pyrrolidin-1-yl-methyl]-pyrrol-1-ylmethyl}-pyridine] | –
45 | N#Cc1ccc(C(c2cccn2Cc2ccccn2)N2CCCC2)cc1 (centres unmarked) [Example 38, 4-[(1-Pyridin-2-ylmethyl-1H-pyrrol-2-yl)-pyrrolidin-1-yl-methyl]-benzonitrile] | –
37 | Fc1ccc(-n2cccc2C(c2ccc(F)c(Br)c2)N2CCCC2)cc1 (centres unmarked) [Example 39, 2-[(3-Bromo-4-fluoro-phenyl)-pyrrolidin-1-yl-methyl]-1-(4-fluoro-phenyl)-1H-pyrrole] | –
51 | O=C(O)c1ccccc1-n1cccc1C(c1cc(Br)ccc1F)N1CCCC1 (centres unmarked) [Example 40, 2-{2-[(5-Bromo-2-fluoro-phenyl)-pyrrolidin-1-yl-methyl]-pyrrol-1-yl}-benzoic acid] | –
41 | NC(=S)c1ccccc1-n1cccc1C(c1cc(Br)ccc1F)N1CCCC1 (centres unmarked) [Example 41, 2-{2-[(5-Bromo-2-fluoro-phenyl)-pyrrolidin-1-yl-methyl]-pyrrol-1-yl}-thiobenzamide] | –
53 | CC(C)(C)c1ccc(C(c2cccn2C(C)(C)C)N2CCCC2)cc1 (centres unmarked) [Example 42, 1-tert-Butyl-2-[(4-tert-butyl-phenyl)-pyrrolidin-1-yl-methyl]-1H-pyrrole] | –
